Source: patent publication US8471005B2 (Cephalon, Inc., priority 2008, dated 2013)
Like-named read-outs stand apart in the source and are kept apart here.

Columns and labels:
[1] = molecular target: T1, JAK2 (Homo sapiens, UniProt O60674); assay: Recombinant Human JAK2 Kinase Assay (TRF); type: biochemical; settings: read-out: JAK2 Potency
T1 construct: host or cells: baculovirus expression system
Procedure, shortened: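 TRF read-out: Eu-N1 PY100 anti-phosphotyrosine antibody detects product. Enzyme is baculovirus-expressed JAK2 at 15 ng/ml; substrate is a biotinyl 15-mer peptide bound to Neutravidin-coated wells. Buffer 20 mM HEPES pH 7.2, 0.2 μM ATP, 1 mM MnCl2, 0.1% BSA, 2.5% DMSO final; 20 min, RT.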

[2] = molecular target: T2, ALK (Homo sapiens, UniProt Q9UM73); assay: ALK Kinase Assay (ELISA/TRF, PLC-γ substrate); type: biochemical; settings: read-out: ALK Potency
T2 construct: host or cells: baculovirus expression system
Procedure, shortened: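 IC50 values derive from percent inhibition plotted against log10 compound concentration and fitted to a variable-slope sigmoidal equation. The underlying reaction used 30 ng/ml ALK acting on immobilized PLC-γ (10 μg/mL in TBS) at 37° C for 15 minutes, read with Eu-N1 PT66 antibody.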

[3] = JAK2 kinase inhibition, 0.2 μM ATP
[4] = ALK kinase inhibition, 1 μM ATP

T1 sequence (O60674 whole entry): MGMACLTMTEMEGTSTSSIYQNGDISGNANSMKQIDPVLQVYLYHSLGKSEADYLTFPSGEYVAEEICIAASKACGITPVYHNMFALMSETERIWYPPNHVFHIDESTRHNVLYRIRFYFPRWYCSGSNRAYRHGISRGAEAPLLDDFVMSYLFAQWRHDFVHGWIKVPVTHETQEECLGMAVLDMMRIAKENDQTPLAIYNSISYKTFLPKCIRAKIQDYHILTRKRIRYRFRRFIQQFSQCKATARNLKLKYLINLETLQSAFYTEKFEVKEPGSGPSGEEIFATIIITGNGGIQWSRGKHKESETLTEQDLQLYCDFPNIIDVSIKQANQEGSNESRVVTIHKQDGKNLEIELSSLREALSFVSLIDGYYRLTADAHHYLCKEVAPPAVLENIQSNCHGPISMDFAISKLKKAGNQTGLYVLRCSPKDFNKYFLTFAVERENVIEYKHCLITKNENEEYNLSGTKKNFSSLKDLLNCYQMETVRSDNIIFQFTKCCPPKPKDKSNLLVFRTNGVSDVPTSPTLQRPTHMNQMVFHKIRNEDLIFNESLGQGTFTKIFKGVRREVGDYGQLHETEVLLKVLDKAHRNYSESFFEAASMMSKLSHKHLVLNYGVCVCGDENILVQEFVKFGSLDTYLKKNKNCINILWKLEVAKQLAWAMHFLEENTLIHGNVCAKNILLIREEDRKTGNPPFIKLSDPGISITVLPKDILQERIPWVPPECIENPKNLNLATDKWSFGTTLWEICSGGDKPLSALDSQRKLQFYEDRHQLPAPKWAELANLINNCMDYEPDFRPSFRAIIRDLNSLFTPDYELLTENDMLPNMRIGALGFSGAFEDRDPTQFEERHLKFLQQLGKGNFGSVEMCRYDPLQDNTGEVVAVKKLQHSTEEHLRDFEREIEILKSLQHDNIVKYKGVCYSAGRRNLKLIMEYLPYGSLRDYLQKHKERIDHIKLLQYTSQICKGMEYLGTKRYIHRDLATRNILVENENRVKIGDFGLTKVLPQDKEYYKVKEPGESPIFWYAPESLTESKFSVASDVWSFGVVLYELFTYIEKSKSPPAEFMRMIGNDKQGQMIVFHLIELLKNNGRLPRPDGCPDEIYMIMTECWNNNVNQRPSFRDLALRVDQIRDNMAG
T2 sequence (Q9UM73 19-1620): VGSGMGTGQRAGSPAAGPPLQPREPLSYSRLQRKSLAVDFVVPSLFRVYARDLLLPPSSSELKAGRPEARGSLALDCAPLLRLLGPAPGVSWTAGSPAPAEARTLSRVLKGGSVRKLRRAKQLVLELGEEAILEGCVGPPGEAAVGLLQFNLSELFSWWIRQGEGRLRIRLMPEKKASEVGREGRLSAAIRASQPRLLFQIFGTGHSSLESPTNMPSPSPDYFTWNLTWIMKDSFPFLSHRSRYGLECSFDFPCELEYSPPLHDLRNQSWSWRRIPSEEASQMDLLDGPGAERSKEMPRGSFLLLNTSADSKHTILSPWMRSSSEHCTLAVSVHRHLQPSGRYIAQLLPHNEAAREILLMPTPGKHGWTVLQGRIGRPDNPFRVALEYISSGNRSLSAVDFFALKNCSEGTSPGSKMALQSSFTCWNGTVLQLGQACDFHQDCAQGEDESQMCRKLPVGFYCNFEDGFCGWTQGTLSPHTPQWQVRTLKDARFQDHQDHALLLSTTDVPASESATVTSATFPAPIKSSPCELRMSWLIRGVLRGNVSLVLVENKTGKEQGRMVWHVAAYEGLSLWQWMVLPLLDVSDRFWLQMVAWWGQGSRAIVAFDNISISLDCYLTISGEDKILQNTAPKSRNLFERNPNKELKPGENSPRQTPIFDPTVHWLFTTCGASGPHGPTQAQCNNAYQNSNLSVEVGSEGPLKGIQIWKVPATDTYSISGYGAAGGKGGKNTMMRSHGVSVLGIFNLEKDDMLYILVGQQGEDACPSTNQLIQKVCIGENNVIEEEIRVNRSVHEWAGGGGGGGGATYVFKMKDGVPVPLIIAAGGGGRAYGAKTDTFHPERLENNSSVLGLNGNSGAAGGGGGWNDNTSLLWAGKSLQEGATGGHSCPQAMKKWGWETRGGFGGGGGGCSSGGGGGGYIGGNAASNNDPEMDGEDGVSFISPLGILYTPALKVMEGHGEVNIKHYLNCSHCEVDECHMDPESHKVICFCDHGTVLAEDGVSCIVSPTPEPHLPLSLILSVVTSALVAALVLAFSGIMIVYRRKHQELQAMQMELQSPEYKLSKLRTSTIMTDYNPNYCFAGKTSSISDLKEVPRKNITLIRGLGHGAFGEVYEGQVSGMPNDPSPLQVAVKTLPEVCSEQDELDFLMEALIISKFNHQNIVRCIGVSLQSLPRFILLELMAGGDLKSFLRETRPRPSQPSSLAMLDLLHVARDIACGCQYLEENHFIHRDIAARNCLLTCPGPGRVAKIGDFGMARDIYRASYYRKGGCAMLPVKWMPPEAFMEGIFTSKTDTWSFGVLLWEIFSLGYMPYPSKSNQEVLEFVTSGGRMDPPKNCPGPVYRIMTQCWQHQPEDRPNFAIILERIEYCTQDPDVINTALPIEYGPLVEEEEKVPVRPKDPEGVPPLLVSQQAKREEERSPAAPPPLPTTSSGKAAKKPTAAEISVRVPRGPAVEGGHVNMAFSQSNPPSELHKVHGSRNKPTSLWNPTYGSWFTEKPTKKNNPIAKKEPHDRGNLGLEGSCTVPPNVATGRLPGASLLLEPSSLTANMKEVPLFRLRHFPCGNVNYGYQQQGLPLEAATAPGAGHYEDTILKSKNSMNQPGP

Row | IC50 [1, 3] | IC50 [2, 4] | IC50 ([1]; JAK2 Kinase Inhibition) | IC50 ([2]; ALK Kinase Inhibition) | SMILES
1 | < 0.1 µM | 1 to 10 µM | – | – | COc1ccc(-c2ccc3cnc(Nc4ccc5c(c4)CN(C)C5)nn23)cn1 [Example 937, [7-(6-Methoxy-pyridin-3-yl)-pyrrolo[2,1-f][1,2,4]triazin-2-yl]-(2-methyl-2,3-dihydro-1H-isoindol-5-yl)-amine]
2 | < 0.1 µM | > 10 µM | – | – | CCOC(=O)c1cccc(Nc2ncc3ccc(-c4cccc(S(=O)(=O)NC(C)(C)C)c4)n3n2)c1 [Example 890, 3-[7-(3-tert-Butylsulfamoyl-phenyl)-pyrrolo[2,1f][1,2,4]triazin-2-ylamino]-benzoic acid ethyl ester]
3 | 0.1 to 1 µM | < 0.1 µM | – | – | COc1cc(C2CCN(CC(N)=O)CC2)ccc1Nc1ncc2c(C)cc(-c3ccccc3OC)n2n1 [Example 1262, 2-(4-{3-Methoxy-4-[7-(2-methoxy-phenyl)-5-methyl-pyrrolo[2,1-f][1,2,4]triazin-2-ylamino]-phenyl}-piperidin-1-yl)-acetamide]
4 | < 0.1 µM | > 10 µM | – | – | COc1ccc(-c2ccc3cnc(Nc4ccc5c(c4)NC(=O)C5(C)C)nn23)cn1 [Example 658, 6-[7-(6-Methoxy-pyridin-3-yl)-pyrrolo[2,1-f][1,2,4]triazin-2-ylamino]-3,3-dimethyl-1,3-dihydro-indol-2-one]
5 | – | – | 1 to 10 µM | < 0.1 µM | COc1ccc(OC)c(-c2ccc3cnc(Nc4ccc(N5CCN(C[C@H](C)O)CC5)cc4OC)nn23)c1 [Example 1477, (S)-1-(4-{4-[7-(2,5-Dimethoxy-phenyl)-pyrrolo[2,1-f][1,2,4]triazin-2-ylamino]-3-methoxy-phenyl}-piperazin-1-yl)-propan-2-ol]
6 | – | – | < 0.1 µM | < 0.1 µM | COc1cc(N2CCCC(N3CCN(C)CC3)C2)ccc1Nc1ncc2ccc(-c3ccccc3OC)n2n1 (single isomer, unassigned) [Example 1441, {2-Methoxy-4-[3-(4-methyl-piperazin-1-yl)-piperidin-1-yl]-phenyl}-[7-(2-methoxy-phenyl)-pyrrolo[2,1-f][1,2,4]triazin-2-yl]-amine]
7 | – | – | < 0.1 µM | 0.1 to 1 µM | CC1(C)CCC(=O)Nc2cc(Nc3ncc4ccc(-c5cccc(NS(C)(=O)=O)c5)n4n3)ccc21 [Example 381, N-{3-[2-(5,5-Dimethyl-2-oxo-2,3,4,5-tetrahydro-1H-1-benzazepin-8-ylamino)-pyrrolo[2,1-f][1,2,4]triazin-7-yl]-phenyl}-methanesulfonamide]
8 | 0.1 to 1 µM | < 0.1 µM | – | – | COc1cc(C2CCN(C[C@H](O)C(F)(F)F)CC2)ccc1Nc1ncc2ccc(-c3ccccc3OC)n2n1 [Example 799, (S)-1,1,1-Trifluoro-3-(4-{3-methoxy-4-[7-(2-methoxy-phenyl)-pyrrolo[2,1-f][1,2,4]triazin-2-ylamino]-phenyl}-piperidin-1-yl)-propan-2-ol]
9 | 0.1 to 1 µM | < 0.1 µM | – | – | COc1cc(C2CCN(C[C@H](O)CO)CC2)ccc1Nc1ncc2ccc(-c3ccccc3N(C)S(C)(=O)=O)n2n1 [Example 769, N-[2-(2-{4-[1-((S)-2,3-Dihydroxy-propyl)-piperidin-4-yl]-2-methoxy-phenylamino}-pyrrolo[2,1-f][1,2,4]triazin-7-yl)-phenyl]-N-methyl-methanesulfonamide]
10 | 0.1 to 1 µM | > 10 µM | – | – | Cn1cc(-c2ccc3cnc(N4CCC(Oc5cccc(N)c5)CC4)nn23)cn1 [Example 598, 3-{1-[7-(1-Methyl-1H-pyrazol-4-yl)-pyrrolo[2,1-f][1,2,4]triazin-2-yl]-piperdin-4-yloxy}-phenylamine]
11 | < 0.1 µM | 0.1 to 1 µM | – | – | CN1CCN(c2ccc(Nc3ncc4ccc(-c5cccc(N6CCNCC6)c5)n4n3)cc2)CC1 [Example 1169, [4-(4-Methyl-piperazin-1-yl)-phenyl]-[7-(3-piperazin-1-yl-phenyl)-pyrrolo[2,1-f][1,2,4]triazin-2-yl]-amine]
12 | – | – | < 0.1 µM | 0.1 to 1 µM | COc1ccccc1-c1ccc2cnc(Nc3cccc(C(=O)N4CCN(C)CC4)c3)nn12 [Example 338, {3-[7-(2-Methoxy-phenyl)-pyrrolo[2,1-f][1,2,4]triazin-2-ylamino]-phenyl}-(4-methyl-piperazin-1-yl)-methanone]
